Laboratory results as given in paper PMC9784969, “SARS-CoV-2 Inhibitors Identified by Phenotypic Analysis of a Collection of Viral RNA-Binding Molecules” (Pharmaceuticals, 2022).
Counter-ions that a name gives are not always drawn. Like-named read-outs stand apart in the source and are kept apart here.

Experiments:
SARS-CoV-2 USA-WA1/2020 [1] = test: microbe, parasite or virus in culture; assay type: cell-based; settings: Vero E6 cells, MOI 0.025, two days, read-out: SARS-CoV-2 EC50
SARS-CoV-2 USA-WA1/2020 [2] = test: microbe, parasite or virus in culture; assay type: cell-based; settings: 293T-ACE2 cells, MOI 0.25, two days, read-out: SARS-CoV-2 EC50
[3] = tested on: subdomain IIa of the internal ribosome entry site (IRES) RNA of HCV; set-up: method as in earlier work; settings: ref 6 (Table S1 list: Martín-Villamil et al. 2022); cited from earlier work
in vitro = settings: African green monkey, uninfected Vero E6 cells
Vero E6 cells = settings: read-out: SARS-CoV-2 CC50, uninfected, MTT
293T-ACE2 cells = settings: read-out: SARS-CoV-2 CC50, uninfected, MTT
HIV-1 = settings: cited from earlier work
[4] = tested on: subdomain IIB of the rev recognition element (RRE) of the HIV-1 genomic RNA; settings: cited from earlier work
SARS-CoV-2 = assay type: cell-based; settings: 48 h post-infection
SCoV2 USA-WA1/2020 = assay type: cell-based; settings: 293T-ACE2, MOI 2, 8-h single cycle; added at +2 h relative to infection
SCoV2 RNA elements = test: ligand-based 1H NMR (1D, CPMG, wLOGSY), six RNA elements compared; assay type: binding, SARS-CoV-2; settings: CSP, LB, CPMG and wLOGSY perturbations; 300 µM compound
Text: We first used ligand-based ^1H NMR experiments to analyze the interaction of the selected compounds with each of the six RNA elements specified above, including one-dimensional, Carr–Purcell–Meiboom–Gill (CPMG) and waterLOGSY (wLOGSY) experiments. These assays detect changes in the ^1H signals of the ligand upon RNA association (Figure 4A), and have been successfully used to evaluate small-molecule binding to RNA motifs, including elements of the SCoV2 genome.
Each ligand (at a concentration of 300 μM) was mixed with a smaller quantity of RNA in an aqueous solution containing 25 mM potassium phosphate (pH 6.2), 150 mM KCl, 3 mM MgCl2, and 10% D2O. RNA–ligand molar ratios of 1:50 and 1:100 were explored (with 6 and 3 μM RNA, respectively). […] The water signal was suppressed from one-dimensional experiments with a watergate sequence. The CPMG experiments were acquired with 100, 200, 300, and 400 ms relaxation delays before acquisition, and water suppression was achieved by presaturation. wLOGSY experiments employed a selective Gaussian 180° pulse at the water frequency and an NOE mixing time of 1.5 s and suppressed the water signal by excitation sculpting. All spectra were acquired in the absence and presence of RNA.
All ligand signals were individually analyzed. For clomiphene citrate, the signals corresponding to cis and trans forms were identified by comparing the spectrum of clomiphene citrate with those of the individual stereoisomers. In CPMG experiments, the binding of the compounds to the different RNA sequences was quantified as 100 minus the percentage of ligand signal area in the +RNA CPMG spectrum relative to the corresponding signal area in the -RNA CPMG spectrum. In wLOGSY experiments, binding was quantified with the LOGSY factor, or % of ligand signal in the difference spectrum between the +RNA and –RNA wLOGSY spectra, relative to the corresponding signal in the one-dimensional -RNA reference spectrum. In one-dimensional experiments, line broadening (LB) was quantified as explained for CPMG spectra.

5_SL2+3 RNA = test: ligand-based 1H NMR (1D, CPMG, wLOGSY); assay type: binding, SARS-CoV-2
ATTL RNA = test: ligand-based 1H NMR (1D, CPMG, wLOGSY); assay type: binding, SARS-CoV-2
PRF RNA = test: ligand-based 1H NMR (1D, CPMG, wLOGSY); assay type: binding, SARS-CoV-2
ORF7b RNA = test: ligand-based 1H NMR (1D, CPMG, wLOGSY); assay type: binding, SARS-CoV-2
3_SL1+2 RNA = assay type: binding
3_S2m RNA = test: ligand-based 1H NMR (1D, CPMG, wLOGSY); assay type: binding, SARS-CoV-2
[5] = Severe acute respiratory syndrome coronavirus 2, Vero C1008, 48 h
[6] = ref 2 (Table S1 list: Prado et al. 2018)
[7] = ref 4 (Table S1 list: Medina-Trillo et al. 2020)
[8] = average of aliphatic protons, RNA:ligand 1:100 (clomiphene) or 1:50 (trim, qz2)
[9] = average of aromatic protons, RNA:ligand 1:100 (clomiphene) or 1:50 (trim, qz2)
[10] = clomiphene citrate peak A, RNA:ligand 1:100
[11] = clomiphene citrate peak B, RNA:ligand 1:100
[12] = clomiphene citrate peak C, RNA:ligand 1:100
[13] = clomiphene citrate peak D, RNA:ligand 1:100
[14] = ref 1 (Table S1 list: Prado et al. 2016)

CCN(CC)CCCC(C)Nc1ccc2ccccc2n1 (stereo not shown) [qn1]
EC50 (SARS-CoV-2 USA-WA1/2020 [1]; [5]): 9.4 µM
EC50 (SARS-CoV-2 USA-WA1/2020 [2]; Severe acute respiratory syndrome coronavirus 2, 48 h): 0.32 µM
Previous target RNA binding [3]: yes
CC50 at 2 days (in vitro): > 20 µM

N=c1c(S(=O)(=O)c2ccc(Cl)cc2)cc2c(=O)n3ccccc3nc2n1C1CCCCC1 [2b]
EC50 (SARS-CoV-2 USA-WA1/2020 [2]): > 10 µM
CC50 (Vero E6 cells): > 20 µM
CC50 (293T-ACE2 cells): > 20 µM
Previous target virus activity (HIV-1; [6]): yes
Previous target virus activity (HIV-1; [7]): no
Previous target RNA binding [4, 6]: yes
Previous target RNA binding [4, 7]: yes

CC(CNc1nc2c(cnn2-c2ccccc2)c(=O)[nH]1)Cn1ccnc1 (stereo not shown) [gn1]
EC50 (SARS-CoV-2 USA-WA1/2020 [1]; [5]): > 20 µM
Previous target RNA binding [3]: yes

CCN(CC)CCOc1ccc(C(=C(Cl)c2ccccc2)c2ccccc2)cc1 [Clomiphene citrate, reference compound]
viral titers in supernatants (TCID50) (SARS-CoV-2): below the limit of detection
nucleocapsid protein expression (SCoV2 USA-WA1/2020): strongly inhibited
RNA binding preference (SCoV2 RNA elements): bound significantly to all of the RNA sequences examined
CPMG variation (5_SL2+3 RNA; [8]): 23.3%
LB (5_SL2+3 RNA; [8]): 0.62%
LB (5_SL2+3 RNA; [9]): -1.34%
CPMG variation (5_SL2+3 RNA; [10]): 36.0%
LB (5_SL2+3 RNA; [10]): 23.4%
CPMG variation (5_SL2+3 RNA; [11]): 26.7%
LB (5_SL2+3 RNA; [11]): 13.7%
CPMG variation (5_SL2+3 RNA; [12]): 14.9%
LB (5_SL2+3 RNA; [12]): -17.3%
CPMG variation (5_SL2+3 RNA; [13]): 29.0%
LB (5_SL2+3 RNA; [13]): -1.34%
CPMG variation (ATTL RNA; [8]): 38.5%
LB (ATTL RNA; [8]): 35.1%
LB (ATTL RNA; [9]): 15.9%
CPMG variation (ATTL RNA; [10]): 34.3%
LB (ATTL RNA; [10]): 25.5%
CPMG variation (ATTL RNA; [11]): 38.3%
LB (ATTL RNA; [11]): 67.0%
CPMG variation (ATTL RNA; [12]): 40.8%
LB (ATTL RNA; [12]): 23.9%
CPMG variation (ATTL RNA; [13]): 41.4%
LB (ATTL RNA; [13]): 15.9%
LB (PRF RNA; [8]): 68.7%
LB (PRF RNA; [9]): 81.7%
CPMG variation (PRF RNA; [10]): 96.5%
LB (PRF RNA; [10]): 73.2%
CPMG variation (PRF RNA; [11]): 93.9%
LB (PRF RNA; [11]): 82.5%
CPMG variation (PRF RNA; [12]): 77.1%
LB (PRF RNA; [12]): 59.6%
CPMG variation (PRF RNA; [13]): 99.0%
LB (PRF RNA; [13]): 81.7%
LB (ORF7b RNA; [8]): 68.0%
LB (ORF7b RNA; [9]): 67.6%
CPMG variation (ORF7b RNA; [10]): 96.3%
LB (ORF7b RNA; [10]): 61.5%
CPMG variation (ORF7b RNA; [11]): 96.5%
LB (ORF7b RNA; [11]): 67.2%
CPMG variation (ORF7b RNA; [12]): 92.9%
LB (ORF7b RNA; [12]): 71.7%
CPMG variation (ORF7b RNA; [13]): 97.5%
LB (ORF7b RNA; [13]): 67.6%
CPMG variation (3_SL1+2 RNA; [8]): 94.5%
LB (3_SL1+2 RNA; [8]): 70.7%
LB (3_SL1+2 RNA; [9]): 61.4%
CPMG variation (3_SL1+2 RNA; [10]): 99.3%
LB (3_SL1+2 RNA; [10]): 59.6%
CPMG variation (3_SL1+2 RNA; [11]): 97.0%
LB (3_SL1+2 RNA; [11]): 89.5%
CPMG variation (3_SL1+2 RNA; [12]): 91.5%
LB (3_SL1+2 RNA; [12]): 66.9%
CPMG variation (3_SL1+2 RNA; [13]): 99.1%
LB (3_SL1+2 RNA; [13]): 61.4%
CPMG variation (3_S2m RNA; [8]): 39.5%
LB (3_S2m RNA; [8]): 44.9%
CPMG variation (3_S2m RNA; [9]): 40.4%
LB (3_S2m RNA; [9]): 37.4%
CPMG variation (3_S2m RNA; [10]): 37.1%
LB (3_S2m RNA; [10]): 57.5%
CPMG variation (3_S2m RNA; [11]): 38.8%
LB (3_S2m RNA; [11]): 51.5%
CPMG variation (3_S2m RNA; [12]): 40.8%
LB (3_S2m RNA; [12]): 35.3%
CPMG variation (3_S2m RNA; [13]): 40.4%
LB (3_S2m RNA; [13]): 37.4%
Previous target RNA binding [4, 14]: yes

Homochlorcyclizine [reference compound]
EC50 (SARS-CoV-2 USA-WA1/2020 [1]): 3.59 µM
CC50 (Vero E6 cells): > 20 µM
Previous target RNA binding [4, 14]: yes
